Consider four molecules from patent US8071768B2, “Alkylquinoline and alkylquinazoline kinase modulators” (Janssen Pharmaceutica, N.V., priority 2005, dated 2011).

Series [1] concerns the target T1, FLT ligand-induced wild-type FLT3 phosphorylation (Homo sapiens, UniProt P36888).
T1 construct: host or cells: Baf3 (murine B cell lymphoma line)
T1 sequence (P36888 27-993): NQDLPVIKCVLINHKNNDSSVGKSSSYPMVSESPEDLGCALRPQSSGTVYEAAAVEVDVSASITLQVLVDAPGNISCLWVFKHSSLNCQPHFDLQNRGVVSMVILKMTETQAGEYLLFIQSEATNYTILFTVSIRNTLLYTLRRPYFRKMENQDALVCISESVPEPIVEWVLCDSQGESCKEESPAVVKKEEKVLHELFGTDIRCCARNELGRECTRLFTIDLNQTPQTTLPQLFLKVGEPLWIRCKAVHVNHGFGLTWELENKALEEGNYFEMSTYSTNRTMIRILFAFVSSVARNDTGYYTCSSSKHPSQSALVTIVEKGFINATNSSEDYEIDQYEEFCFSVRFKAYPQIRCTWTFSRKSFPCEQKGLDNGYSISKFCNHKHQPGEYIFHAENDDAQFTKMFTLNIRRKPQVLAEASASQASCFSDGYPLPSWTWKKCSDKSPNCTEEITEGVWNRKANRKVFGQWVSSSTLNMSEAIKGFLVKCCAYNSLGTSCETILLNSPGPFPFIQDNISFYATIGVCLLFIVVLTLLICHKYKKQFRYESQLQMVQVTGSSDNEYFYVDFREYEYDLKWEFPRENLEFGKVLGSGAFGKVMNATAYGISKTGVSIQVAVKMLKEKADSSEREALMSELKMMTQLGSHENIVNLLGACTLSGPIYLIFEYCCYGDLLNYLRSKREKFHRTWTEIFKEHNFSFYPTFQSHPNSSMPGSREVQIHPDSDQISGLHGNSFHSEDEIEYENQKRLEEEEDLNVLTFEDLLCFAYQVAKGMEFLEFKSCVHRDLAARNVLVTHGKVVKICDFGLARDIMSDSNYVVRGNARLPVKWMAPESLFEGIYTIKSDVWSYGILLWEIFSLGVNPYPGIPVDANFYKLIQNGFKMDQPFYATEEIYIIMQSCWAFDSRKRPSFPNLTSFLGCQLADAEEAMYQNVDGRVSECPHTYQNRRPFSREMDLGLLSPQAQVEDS
The series is described as follows: Cell-Based FLT3 Receptor Elisa (Baf3 FLT3 cells). The conditions noted are these: uncertainty ±20%. As to the method: Cell-Based FLT3 Receptor Elisa
Specific cellular inhibition of FLT ligand-induced wild-type FLT3 phosphorylation was measured in the following manner: Baf3 FLT3 cells overexpressing the FLT3 receptor were obtained from Dr. Michael Heinrich (Oregon Health and Sciences University). The Baf3 FLT3 cell lines were created by stable transfection of parental Baf3 cells (a murine B cell lymphoma line dependent on the cytokine IL-3 for growth) with wild-type FLT3. Cells were selected for their ability to grow in the absence of IL-3 and in the presence of FLT3 ligand.
Baf3 cells were maintained in RPMI 1640 with 10% FBS, penn/strep and 10 ng/ml FLT ligand at 37° C., 5% CO2. To measure direct inhibition of the wild-type FLT3 receptor activity and phosphorylation a sandwich ELISA method was developed similar to those developed for other RTKs (3,4). 200 μL of Baf3FLT3 cells (1×10^6/mL) were plated in 96 well dishes in RPMI 1640 with 0.5% serum and 0.01 ng/mL IL-3 for 16 hours prior to 1 hour compound or DMSO vehicle incubation. Cells were treated with 100 ng/mL Flt ligand (R&D Systems Cat# 308-FK) for 10 min. at 37° C. Cells were pelleted, washed and lysed in 100 ul lysis buffer (50 mM Hepes, 150 mM NaCl, 10% Glycerol, 1% Triton-X-100, 10 mM NaF, 1 mM EDTA, 1.5 mM MgCl2, 10 mM NaPyrophosphate) supplemented with phosphatase (Sigma Cat# P2850) and protease inhibitors (Sigma Cat #P8340). […]

The target in series [2] is T2, TrkB (Homo sapiens, UniProt Q16620).
T2 construct: purchased Upstate 14-507M
T2 sequence (Q16620 32-822): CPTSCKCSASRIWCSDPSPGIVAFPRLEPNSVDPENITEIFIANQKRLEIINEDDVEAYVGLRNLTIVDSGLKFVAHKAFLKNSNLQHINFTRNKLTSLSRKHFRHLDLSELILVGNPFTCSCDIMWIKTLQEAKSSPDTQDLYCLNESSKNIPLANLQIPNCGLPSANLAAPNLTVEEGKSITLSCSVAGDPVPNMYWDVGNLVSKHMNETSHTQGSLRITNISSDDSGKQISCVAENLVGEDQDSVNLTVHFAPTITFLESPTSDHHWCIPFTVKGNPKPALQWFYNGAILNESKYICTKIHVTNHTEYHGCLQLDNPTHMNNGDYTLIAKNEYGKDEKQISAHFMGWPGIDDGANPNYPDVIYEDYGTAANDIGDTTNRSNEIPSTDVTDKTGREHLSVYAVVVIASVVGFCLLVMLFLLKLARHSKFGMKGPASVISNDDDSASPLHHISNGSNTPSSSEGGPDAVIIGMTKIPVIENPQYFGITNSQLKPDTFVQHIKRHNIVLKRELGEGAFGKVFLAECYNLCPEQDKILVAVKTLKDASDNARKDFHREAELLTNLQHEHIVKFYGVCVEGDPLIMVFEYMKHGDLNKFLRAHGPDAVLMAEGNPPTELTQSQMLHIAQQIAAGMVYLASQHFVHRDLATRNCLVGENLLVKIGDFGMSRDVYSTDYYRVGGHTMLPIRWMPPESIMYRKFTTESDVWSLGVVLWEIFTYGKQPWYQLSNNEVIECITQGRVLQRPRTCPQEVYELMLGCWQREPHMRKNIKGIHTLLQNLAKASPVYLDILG
The series is described as follows: Trk B Fluorescence Polarization Kinase Assay. Format: biochemical. The settings on record: uncertainty ±10%. An outline of the steps:
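The TrkB kinase reaction (50 nM enzyme, 20 ug/mL poly Glu4Tyr, 150 uM ATP, 5 mM MgCl2, 1% DMSO) ran 30 minutes at room temperature and was stopped with EDTA. Phosphorylation was detected by fluorescence-polarization displacement of a fluorescein phosphopeptide from an anti-phosphotyrosine antibody. IC50 came from a variable-slope sigmoidal fit of triplicates.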
Background: In fluorescence polarisation assays a small probe gives low polarisation when free and higher when bound to something large.

Series [3] relates to FLT3. The series is described as follows: FLT3 phosphorylation in MV4-11 tumors from treated mice (immunoblot). Format: in vivo, nude mice. The settings on record: single dose 100 mg/kg po, tumors harvested 2 hours later. As to the method:
To establish further that compounds of the present invention reached the expected target in tumor tissue, the level of FLT3 phosphorylation in tumor tissue obtained from vehicle- and compound-treated mice was measured. Results for Compound 73 and Compound 74 are shown in FIG. 3 and FIG. 4, respectively. For this pharmacodynamic study, a sub-set of 10 mice from the vehicle-treated control group were randomized into two groups of 5 mice each and then treated with another dose of vehicle or compound (100 mg/kg, po). Tumors were harvested 2 hours later and snap frozen for assessment of FLT3 phosphorylation by immunobloting.
Harvested tumors were processed for immunoblot analysis of FLT3 phosphorylation in the following manner: 100 mg of tumor tissue was dounce homogenized in lysis buffer (50 mM Hepes, 150 mM NaCl, 10% Glycerol, 1% Triton-X-100, 10 mM NaF, 1 mM EDTA, 1.5 mM MgCl2, 10 mM NaPyrophosphate) supplemented with phosphatase (Sigma Cat#P2850) and protease inhibitors (Sigma Cat #P8340). Insoluble debris was removed by centrifugation at 1000×g for 5 minutes at 4° C. Cleared lysates ([…] of total potein at 10 mg/ml in lysis buffer) were incubated with 10 μg of agarose conjugated anti-FLT3 antibody, clone C-20 (Santa Cruz cat # sc-479ac), for 2 hours at 4° C. with gentle agitation. […]
On the technique in general: A western blot detects proteins with antibodies after separation by electrophoresis.

The target of series [4] is T3, isolated kinase domain of the human c-kit receptor (Homo sapiens, UniProt P10721).
T3 construct: isolated kinase domain of the human c-kit receptor; purchased ProQinase lot SP005
T3 sequence (P10721 589-937 limits assumed): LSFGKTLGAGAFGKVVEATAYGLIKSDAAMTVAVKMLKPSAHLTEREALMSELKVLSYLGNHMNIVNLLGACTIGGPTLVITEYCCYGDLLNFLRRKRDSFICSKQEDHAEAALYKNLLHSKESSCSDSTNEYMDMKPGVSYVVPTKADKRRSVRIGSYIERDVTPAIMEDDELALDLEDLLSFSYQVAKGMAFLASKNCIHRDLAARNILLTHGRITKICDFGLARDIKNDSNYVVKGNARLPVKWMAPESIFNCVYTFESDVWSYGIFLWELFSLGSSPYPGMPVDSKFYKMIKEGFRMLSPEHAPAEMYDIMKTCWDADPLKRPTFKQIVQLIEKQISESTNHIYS
As to the kind of experiment: c-Kit Fluorescence Polarization Kinase Assay. Format: biochemical. The conditions noted are these: uncertainty ±10%; read-out: ckit IC50. How it is done:
c-Kit Fluorescence Polarization Kinase Assay
The compounds of the present invention are also specific inhibitors of c-Kit. Selection of preferred compounds of Formula I for use as c-Kit inhibitors was performed in the following manner using an in vitro kinase assay to measure inhibition of the isolated kinase domain of the human c-kit receptor in a fluorescence polarization (FP) protocol. The c-kit assay utilized the fluorescein-labeled phosphopeptide and the anti-phosphotyrosine antibody included in the Panvera Phospho-Tyrosine Kinase Kit (Green) supplied by Invitrogen. When c-kit phosphorylated the poly Glu4Tyr, the fluorescein-labeled phosphopeptide was displaced from the anti-phosphotyrosine antibody by the phosphorylated poly Glu4Tyr, thus decreasing the FP value. The c-kit kinase reaction was incubated at room temperature for 45 minutes under the following conditions: 1 nM c-kit (ProQinase, lot SP005), 100 ug/mL poly Glu4Tyr, 50 uM ATP, 5 mM MgCl2, 1 mM DTT, 0.01% Tween-20, 1% DMSO or compound in […], pH 7.5. The kinase reaction was stopped with the addition of EDTA. The fluorescein-labeled phosphopeptide and the anti-phosphotyrosine antibody were added and incubated for 30 minutes at room temperature and fluorescence polarization was read. Data points were an average of triplicate samples. Inhibition and IC50 data analysis were done with GraphPad Prism using a non-linear regression fit with a multiparamater, sigmoidal dose-response (variable slope) equation.

The nature of series [5]: Tolerability in the MV4-11 xenograft study (body weight, overt clinical signs). Format: in vivo, nude mice. The conditions noted are these: 11-day treatment, doses up to 200 mg/kg/day. As to the method: (§1) Female athymic nude mice weighing no less than 20-21 grams were inoculated subcutaneously in the left inguinal region of the thigh with 5×10^6 tumor cells in a delivery volume of 0.2 mL. For regression studies, the tumors were allowed to grow to a pre-determined size prior to initiation of dosing.

The subject of series [6] is MV4-11 tumor xenografts. As to the kind of experiment: nude mouse MV4-11 human tumor xenograft regression model. Format: in vivo, nude mice. The settings on record: for decrease of mean tumor volume compared to vehicle-treated group: Day 11; for reduction of final tumor weight compared to vehicle-treated group: eleven days oral dosing. How it is done:
Female athymic nude mice (CD-1, nu/nu, 9-10 weeks old) were obtained from Charles River Laboratories (Wilmington, Mass.) and were maintained according to NIH standards. All mice were group housed (5 mice/cage) under clean-room conditions in sterile micro-isolator cages on a 12-hour light/dark cycle in a room maintained at 21-22° C. and 40-50% humidity. Mice were fed irradiated standard rodent diet and water ad libitum. All animals were housed in a Laboratory Animal Medicine facility that is fully accredited by the American Association for Assessment and Accreditation of Laboratory Animal Care (AAALAC). All procedures involving animals were conducted in compliance with the NIH Guide for the Care and Use of Laboratory Animals and all protocols were approved by an Internal Animal Care and Use Committee (IACUC).
The human leukemic MV4-11 cell line was obtained from the American Type Culture Collection (ATCC Number: CRL-9591) and propagated in RPMI medium containing 10% FBS (fetal bovine serum) and 5 ng/mL GM-CSF (R&D Systems). MV4-11 cells are derived from a patient with childhood acute myelomonocytic leukemia with an 11q23 translocation resulting in a MLL gene rearrangement and containing an FLT3-ITD mutation (AML subtype M4)(1,2). MV4-11 cells express constitutively active phosphorylated FLT3 receptor as a result of a naturally occurring FLT3/ITD mutation. Strong anti-tumor activity against MV4-11 tumor growth in the nude mouse tumor xenograft model is anticipated to be a desirable quality of the invention.
as §1
(See FIG. 2). […] Percent Inhibition was calculated versus the mean tumor weight in the vehicle-treated control group.
For orientation: In xenograft studies the graft and the host belong to different species.

Where only a bound is given, the exact number is not on record here.

As usually defined, the IC50 is the concentration needed to halve the response being measured. `COc1cc2ncnc(C3CCN(C(=O)Nc4ccc(N5CCN(C)CC5)cc4)CC3)c2cc1OC` [Compound 20, 4-(6,7-Dimethoxy-quinazolin-4-yl)-piperidine-1-carboxylic acid [4-(4-methyl-piperazin-1-yl-phenyl)]-amide]: the IC50 was more than 3 µM in series [1] and 39.9 µM in series [2].

Regarding `CN1CCN(CCCOc2ccc3c(C4CCN(C(=O)Nc5ccc(N6CCOCC6)cc5)CC4)ncnc3c2)CC1` [Compound 73, 4-{7-[3-(4-Methyl-piperazin-1-yl)-propoxy]-quinazolin-4-yl}-piperidine-1-carboxylic acid (4-morpholin-4-yl-phenyl)-amide], the “level of FLT3 phosphorylation in MV4-11 tumors compared to vehicle-treated mice” value in series [3] was “biologically significant reduction”. In addition, the IC50 in series [2] was more than 20 µM. Besides, in series [4], the IC50 stood at 0.04 µM. Further, in series [5], the “adverse effects on body weight” value is “no significant adverse effects on body weight” and the overt toxicity entry is “No overt toxicity”. For the same molecule, the “final tumors in some mice” value in series [6] (high dose) is listed as “regressed to non-palpable, non-detectable tumors”.

For the molecule `O=C1CCCN1CCOc1ccc2c(C3CCN(C(=O)Nc4ccc(N5CCCC5)cc4)CC3)ncnc2c1` [Compound 74, 4-{7-[2-(2-Oxo-pyrrolidin-1-yl)-ethoxy]-quinazolin-4-yl}-piperidine-1-carboxylic acid (4-pyrrolidin-1-yl-phenyl)-amide], the “level of FLT3 phosphorylation in MV4-11 tumors compared to vehicle-treated mice” value in series [3] is on record as “biologically significant reduction”. Moreover, the IC50 in series [2] was 3.3 µM; in series [4], 0.013 µM. In addition, in series [5], the “adverse effects on body weight” value was “no significant adverse effects on body weight”. Further, in series [5], the overt toxicity entry is listed as “No overt toxicity”. In addition, the “decrease of mean tumor volume compared to vehicle-treated group” value in series [6] (10 mg/kg b.i.d. oral) is recorded as 22%; in series [6] (30 mg/kg b.i.d. oral) it was 54%; in series [6] (100 mg/kg b.i.d. oral) it was 96%. For the same molecule, the “reduction of final tumor weight compared to vehicle-treated group” value in series [6] (10 mg/kg) is on record as 12%; in series [6] (30 mg/kg), 43%; in series [6] (100 mg/kg), 91%. Moreover, in series [6] (100 mg/kg b.i.d. oral), the “tumor regression: decrease versus starting mean tumor volume on Day 1” value is recorded as 79%.

Turning to `COc1cc2ncnc(C3CCN(C(=O)Nc4ccc(C(C)O)cc4)CC3)c2cc1OC` (stereo not shown) [Compound 55, 4-(6,7-Dimethoxy-quinazolin-4-yl)-piperidine-1-carboxylic acid [4-(1-hydroxy-ethyl)-phenyl]-amide], the IC50 in series [1] came to 1 µM; in series [2] it was 39.1 µM.
